Laboratory results from article PMC11078216, “Discovery of potent and selective activity-based probes (ABPs) for the deubiquitinating enzyme USP30” (RSC Chemical Biology, 2024).
One block for each compound: values may come before it.

How the values were obtained:
Assay in all cases: ABPP chemical proteomics (LC-MS/MS) in HEK293T cells
Type in all cases: cell-based
[1] = target: T1, PARK7 (Homo sapiens, UniProt Q99497); conditions: 30 nM, 10 min
T1 construct: endogenous in cells; host or cells: HEK293T
Description: (§1) To explore the selectivity of IMP-2587 and IMP-2586 across the whole proteome, we performed quantitative activity-based protein profiling (ABPP) in HEK293T cells following treatment with IMP-2587 or IMP-2586 (Fig. 3a). After ABP incubation, cells were lysed, and probe-labelled proteins were ligated to biotinylated capture reagents.[27] […] USP30 was outcompeted by corresponding parent inhibitors for each ABP (Fig. 5b and d and Tables S3 and S5, ESI ^†), confirming the high potency and rapid engagement of IMP-2587 and IMP-2586 in cells. […] DESI1 and DESI2 are small ubiquitin-related modifier (SUMO) proteases,[3,29–32] and IMP-2587 and IMP-2586 may offer a starting point for future development of DESI ABPs. […]
(§2) d) Live cell probe incubation, lysate click chemistry and precipitation 6-well HEK293T cells were incubated with media containing compounds ABP 2 and ABP 4 at indicated concentrations for 1 h at 37 °C. The cells were washed with PBS and lysed with lysis buffer (50 μL (1% (v/v) Triton X-100, 0.1% (w/v) sodium dodecyl sulfate (SDS), EDTA-free complete protease inhibitor cocktail (1×, Roche) in PBS on ice for 10 min. The lysates were scraped and transferred to corresponding Lo-Bind Eppendorfs. Each lysate was sonicated for 1 minute, and the samples centrifuges at 5,000 x g at 4 °C for 5 minutes to pellet insoluble cellular debris. The supernatant was collected, and protein concentration was determined using the DC Protein Assay (Bio-Rad) as per manufacturer’s instructions, and normalised to lowest concentrated sample (e.g. 1 mg/mL, using lysis buffer). The following “click mixture” was prepared separately, preparing 6 μL for every 100 μL of […]
(§3) Capture reagent (AzRB/AzT for ABP 2, YnT/YnB for ABP 4 10 mM in DMSO, 1 vol; final concentration […]
(§4) CuSO4 (50 mM in water, 2 vol; final concentration in reaction 1 mM)
(§5) TCEP (50 mM in water, 2 vol; final concentration in reaction 1 mM)
(§6) TBTA (10 mM in DMSO, 1 vol; final concentration in reaction 100 µM)
(§7) The click mixture was vortexed and incubated at room temperature for 2 min before 6 μL of the mixture was added to every 100 μL of lysate. The reaction mixtures were shaken at room temperature for 1 h before being quenched with EDTA (500 mM in H2O) to a final concentration of 10 mM.
(§8) Proteins were precipitated by adding H2O (1 vol), MeOH (2 vol) and CHCl3 (0.5 vol), vortexing briefly then centrifuging at 17,000 × g for 5 min. The top H2O/MeOH layer was discarded and the middle layer of protein pellet and lower CHCl3 layer retained. The suspension was washed with MeOH (300 μL), and sonicated to break up the pellet. The proteins were pelleted by centrifugation at 10,000–17000 × g for 5–10 min or until a compact pellet was formed. The protein pellet was washed once more with MeOH (1 mL). The pellet was resuspended by sonicating and completely dissolving in 1% (w/v) SDS in PBS (to 5 mg/mL protein) before being made up to 1 mg/mL protein with PBS.
(§9) The lysate samples (10-20 μg) were mixed with 4× Laemmli sample loading buffer (250 mM Tris -HCl pH 6.8, 30% (v/v) glycerol, 10% (w/v) SDS, 0.05% (w/v) bromophenol blue) supplemented with 20% v/v β-mercaptoethanol (BME) and boiled for 10 min at 95 °C. The resulting protein samples were separated according to the protocol in section 3.2.c. Gel were imaged on a Typhoon imager (GE Healthcare; λEx 532 nm, λEm 575 nm for TAMRA. For protein loading quantification, gels were stained with Coomassie blue staining solution overnight, rinsed with water and imaged on an ImageQuant™ LAS 4000 imager (GE Healthcare). f) Neutravidin biotin enrichment (Affinity pull-down)
(§10) Click chemistry and precipitation steps were carried out as described in section 3.2.d, on at least 400ug of protein per sample. The pellet was resuspended by sonicating and completely dissolving in 1% (w/v) SDS in HEPES 50 mM pH 8.0, before being made up to 1 mg/mL protein with HEPES 50 mM pH 8.0 to […]
(§11) achieve a final concentration of 0.2% SDS. 20uL of each samples was collected as TL (Total lysate) […]
(§12) samples. […]

[2] = target: T2, PPAT (Homo sapiens, UniProt Q06203)
T2 construct: endogenous in cells; host or cells: HEK293T
Description: as §1, §2, §3, §4, §5, §6, §7, §8, §9, §10, §11, §12

[3] = target: T3, PGAP1 (Homo sapiens, UniProt Q75T13)
T3 construct: endogenous in cells; host or cells: HEK293T
Description: as §1, §2, §3, §4, §5, §6, §7, §8, §9, §10, §11, §12

[4] = target: T4, SRP68 (Homo sapiens, UniProt Q9UHB9)
T4 construct: endogenous in cells; host or cells: HEK293T
Description: as §1, §2, §3, §4, §5, §6, §7, §8, §9, §10, §11, §12

[5] = target: T5, ALDH3A2 (Homo sapiens, UniProt P51648)
T5 construct: endogenous in cells; host or cells: HEK293T
Description: as §1, §2, §3, §4, §5, §6, §7, §8, §9, §10, §11, §12

[6] = target: T6, NIT1 (Homo sapiens, UniProt Q86X76)
T6 construct: endogenous in cells; host or cells: HEK293T
Description: as §1, §2, §3, §4, §5, §6, §7, §8, §9, §10, §11, §12

[7] = target: T7, MRPS2 (Homo sapiens, UniProt Q9Y399)
T7 construct: endogenous in cells; host or cells: HEK293T
Description: as §1, §2, §3, §4, §5, §6, §7, §8, §9, §10, §11, §12

[8] = target: T8, FAAH2 (Homo sapiens, UniProt Q6GMR7)
T8 construct: endogenous in cells; host or cells: HEK293T
Description: as §1, §2, §3, §4, §5, §6, §7, §8, §9, §10, §11, §12

[9] = target: T9, ALDH9A1 (Homo sapiens, UniProt P49189)
T9 construct: endogenous in cells; host or cells: HEK293T
Description: as §1, §2, §3, §4, §5, §6, §7, §8, §9, §10, §11, §12

[10] = target: T10, ABHD6 (Homo sapiens, UniProt Q9BV23)
T10 construct: endogenous in cells; host or cells: HEK293T
Description: as §1, §2, §3, §4, §5, §6, §7, §8, §9, §10, §11, §12

[11] = target: T11, ALDH1A1 (Homo sapiens, UniProt P00352)
T11 construct: endogenous in cells; host or cells: HEK293T
Description: as §1, §2, §3, §4, §5, §6, §7, §8, §9, §10, §11, §12

[12] = target: T12, FAAH (Homo sapiens, UniProt O00519)
T12 construct: endogenous in cells; host or cells: HEK293T
Description: as §1, §2, §3, §4, §5, §6, §7, §8, §9, §10, §11, §12

[13] = IMP-2586 labelling vs DMSO, 30 nM, 10 min, HEK293T (Table S4, Fig.5c)
[14] = IMP-2587 labelling vs DMSO, 30 nM, 10 min, HEK293T (Table S2, Fig.5a)
[15] = compound 1 out-competition with IMP-2587 labelling, HEK293T (Table S3, Fig.5b)
[16] = compound 3 out-competition with IMP-2586 labelling, HEK293T (Table S5, Fig.5d)

T9 sequence (P49189 whole entry): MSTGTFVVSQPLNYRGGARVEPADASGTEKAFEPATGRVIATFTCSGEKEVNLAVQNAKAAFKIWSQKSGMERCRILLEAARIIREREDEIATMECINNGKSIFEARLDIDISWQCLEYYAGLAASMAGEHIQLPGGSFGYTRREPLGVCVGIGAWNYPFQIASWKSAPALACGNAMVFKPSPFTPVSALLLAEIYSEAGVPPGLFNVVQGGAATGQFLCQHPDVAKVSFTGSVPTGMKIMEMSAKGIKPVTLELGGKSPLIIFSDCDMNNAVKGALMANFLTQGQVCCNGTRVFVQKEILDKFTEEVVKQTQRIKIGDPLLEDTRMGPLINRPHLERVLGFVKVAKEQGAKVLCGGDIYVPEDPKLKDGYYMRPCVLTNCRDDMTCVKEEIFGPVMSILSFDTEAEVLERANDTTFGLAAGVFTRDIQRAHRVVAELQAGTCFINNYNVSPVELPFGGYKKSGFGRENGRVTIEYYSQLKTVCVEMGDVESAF
T3 sequence (Q75T13 whole entry): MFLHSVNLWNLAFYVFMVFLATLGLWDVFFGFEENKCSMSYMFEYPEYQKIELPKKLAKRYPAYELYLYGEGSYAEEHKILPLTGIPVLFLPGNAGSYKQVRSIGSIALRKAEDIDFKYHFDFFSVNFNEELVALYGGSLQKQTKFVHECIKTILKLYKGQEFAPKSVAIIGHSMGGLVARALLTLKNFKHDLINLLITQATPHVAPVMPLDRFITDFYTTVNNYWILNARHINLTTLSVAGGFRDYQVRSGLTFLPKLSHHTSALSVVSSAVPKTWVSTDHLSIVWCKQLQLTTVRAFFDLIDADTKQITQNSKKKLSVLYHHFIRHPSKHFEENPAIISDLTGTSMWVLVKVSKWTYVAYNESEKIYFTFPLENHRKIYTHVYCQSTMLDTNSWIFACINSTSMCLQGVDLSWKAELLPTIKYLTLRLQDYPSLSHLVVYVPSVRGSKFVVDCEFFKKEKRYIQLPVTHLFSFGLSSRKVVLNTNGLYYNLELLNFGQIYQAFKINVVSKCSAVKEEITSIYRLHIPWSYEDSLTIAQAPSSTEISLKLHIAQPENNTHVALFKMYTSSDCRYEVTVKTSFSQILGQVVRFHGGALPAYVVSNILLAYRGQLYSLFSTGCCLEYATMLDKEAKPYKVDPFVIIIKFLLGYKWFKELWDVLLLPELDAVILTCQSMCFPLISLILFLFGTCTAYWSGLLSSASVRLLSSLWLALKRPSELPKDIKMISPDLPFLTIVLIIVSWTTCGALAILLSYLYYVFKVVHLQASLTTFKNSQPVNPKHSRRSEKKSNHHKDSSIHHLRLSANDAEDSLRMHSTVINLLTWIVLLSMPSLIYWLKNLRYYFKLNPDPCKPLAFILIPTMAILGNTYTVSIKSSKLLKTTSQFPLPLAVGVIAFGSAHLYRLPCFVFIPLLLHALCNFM
T5 sequence (P51648 whole entry): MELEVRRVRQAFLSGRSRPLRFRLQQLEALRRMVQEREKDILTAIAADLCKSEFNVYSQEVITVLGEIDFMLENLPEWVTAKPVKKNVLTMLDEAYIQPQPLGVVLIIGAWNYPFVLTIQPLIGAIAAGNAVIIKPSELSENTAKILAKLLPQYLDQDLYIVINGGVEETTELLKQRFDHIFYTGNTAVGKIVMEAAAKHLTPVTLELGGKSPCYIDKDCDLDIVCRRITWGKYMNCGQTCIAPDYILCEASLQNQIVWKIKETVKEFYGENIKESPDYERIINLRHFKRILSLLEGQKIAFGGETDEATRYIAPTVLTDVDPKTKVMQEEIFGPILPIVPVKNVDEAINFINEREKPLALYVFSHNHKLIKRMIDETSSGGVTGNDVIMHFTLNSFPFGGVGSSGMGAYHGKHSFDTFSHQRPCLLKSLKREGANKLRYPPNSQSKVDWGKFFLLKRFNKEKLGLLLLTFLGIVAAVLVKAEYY
T12 sequence (O00519 whole entry): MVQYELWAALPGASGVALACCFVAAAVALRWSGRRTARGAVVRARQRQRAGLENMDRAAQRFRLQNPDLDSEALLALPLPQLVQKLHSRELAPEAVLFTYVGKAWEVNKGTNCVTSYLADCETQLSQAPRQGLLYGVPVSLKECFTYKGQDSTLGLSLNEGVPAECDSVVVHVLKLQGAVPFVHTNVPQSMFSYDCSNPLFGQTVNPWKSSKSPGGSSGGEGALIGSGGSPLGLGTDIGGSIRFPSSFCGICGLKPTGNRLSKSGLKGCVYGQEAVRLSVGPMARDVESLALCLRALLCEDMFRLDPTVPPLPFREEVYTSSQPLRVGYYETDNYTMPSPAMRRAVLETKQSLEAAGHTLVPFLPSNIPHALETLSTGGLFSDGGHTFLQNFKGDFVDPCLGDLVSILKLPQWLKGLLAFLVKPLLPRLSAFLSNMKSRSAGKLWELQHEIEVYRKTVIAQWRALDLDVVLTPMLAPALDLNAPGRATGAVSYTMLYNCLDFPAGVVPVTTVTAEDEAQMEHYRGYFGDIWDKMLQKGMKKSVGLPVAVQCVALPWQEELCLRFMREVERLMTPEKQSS
T2 sequence (Q06203 12-517): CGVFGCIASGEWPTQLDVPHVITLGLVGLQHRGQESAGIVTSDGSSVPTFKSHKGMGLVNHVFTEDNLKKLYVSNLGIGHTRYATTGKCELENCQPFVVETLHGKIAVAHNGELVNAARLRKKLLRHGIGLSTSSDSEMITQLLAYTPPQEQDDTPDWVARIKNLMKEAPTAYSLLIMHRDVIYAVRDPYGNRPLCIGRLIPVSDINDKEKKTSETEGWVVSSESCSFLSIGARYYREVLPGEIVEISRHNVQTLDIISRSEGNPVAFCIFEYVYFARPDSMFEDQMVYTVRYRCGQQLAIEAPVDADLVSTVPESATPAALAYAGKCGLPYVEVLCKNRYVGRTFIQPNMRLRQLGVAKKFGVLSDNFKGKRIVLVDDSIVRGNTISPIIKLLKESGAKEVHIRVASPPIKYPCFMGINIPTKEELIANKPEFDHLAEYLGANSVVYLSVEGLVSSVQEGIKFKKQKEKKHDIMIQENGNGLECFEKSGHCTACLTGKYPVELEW
T1 sequence (Q99497 whole entry): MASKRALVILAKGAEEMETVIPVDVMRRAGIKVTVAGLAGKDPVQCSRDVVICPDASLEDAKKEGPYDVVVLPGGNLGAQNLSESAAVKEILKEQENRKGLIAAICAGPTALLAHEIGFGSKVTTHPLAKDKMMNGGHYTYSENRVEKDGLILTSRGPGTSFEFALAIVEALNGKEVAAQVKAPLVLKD
T6 sequence (Q86X76 14-327): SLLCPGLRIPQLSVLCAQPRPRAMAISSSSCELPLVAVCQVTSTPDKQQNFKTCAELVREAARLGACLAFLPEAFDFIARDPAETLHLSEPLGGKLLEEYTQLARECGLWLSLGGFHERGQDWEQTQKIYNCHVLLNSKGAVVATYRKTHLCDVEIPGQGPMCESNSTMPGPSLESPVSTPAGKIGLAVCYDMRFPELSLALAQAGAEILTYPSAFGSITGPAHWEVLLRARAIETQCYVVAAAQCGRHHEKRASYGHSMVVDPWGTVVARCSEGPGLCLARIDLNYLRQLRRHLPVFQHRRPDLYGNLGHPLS
T10 sequence (Q9BV23 whole entry): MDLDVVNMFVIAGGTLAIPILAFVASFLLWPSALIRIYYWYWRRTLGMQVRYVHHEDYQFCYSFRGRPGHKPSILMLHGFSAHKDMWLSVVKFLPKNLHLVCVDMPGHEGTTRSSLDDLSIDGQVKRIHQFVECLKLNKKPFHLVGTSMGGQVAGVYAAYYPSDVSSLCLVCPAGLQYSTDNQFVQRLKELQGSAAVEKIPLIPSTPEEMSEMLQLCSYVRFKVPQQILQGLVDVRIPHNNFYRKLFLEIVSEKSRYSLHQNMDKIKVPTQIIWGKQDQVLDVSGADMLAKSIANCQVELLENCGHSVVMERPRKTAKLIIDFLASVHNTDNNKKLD
T4 sequence (Q9UHB9 whole entry): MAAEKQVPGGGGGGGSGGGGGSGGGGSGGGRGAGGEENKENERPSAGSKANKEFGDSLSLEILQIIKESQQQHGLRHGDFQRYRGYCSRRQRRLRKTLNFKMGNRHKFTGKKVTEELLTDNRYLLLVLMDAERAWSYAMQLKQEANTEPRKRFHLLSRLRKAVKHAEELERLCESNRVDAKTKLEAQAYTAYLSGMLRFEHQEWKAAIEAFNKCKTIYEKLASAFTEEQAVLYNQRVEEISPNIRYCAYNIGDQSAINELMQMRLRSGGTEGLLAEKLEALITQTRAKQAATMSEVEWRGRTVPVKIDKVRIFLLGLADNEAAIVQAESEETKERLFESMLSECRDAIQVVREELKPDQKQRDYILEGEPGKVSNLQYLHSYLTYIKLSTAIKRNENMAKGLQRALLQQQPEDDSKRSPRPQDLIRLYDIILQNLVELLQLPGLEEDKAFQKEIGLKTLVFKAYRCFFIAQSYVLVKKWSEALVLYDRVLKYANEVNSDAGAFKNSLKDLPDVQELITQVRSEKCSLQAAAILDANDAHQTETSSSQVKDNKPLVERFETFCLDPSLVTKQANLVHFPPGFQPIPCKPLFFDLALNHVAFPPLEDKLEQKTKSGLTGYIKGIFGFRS
T11 sequence (P00352 whole entry): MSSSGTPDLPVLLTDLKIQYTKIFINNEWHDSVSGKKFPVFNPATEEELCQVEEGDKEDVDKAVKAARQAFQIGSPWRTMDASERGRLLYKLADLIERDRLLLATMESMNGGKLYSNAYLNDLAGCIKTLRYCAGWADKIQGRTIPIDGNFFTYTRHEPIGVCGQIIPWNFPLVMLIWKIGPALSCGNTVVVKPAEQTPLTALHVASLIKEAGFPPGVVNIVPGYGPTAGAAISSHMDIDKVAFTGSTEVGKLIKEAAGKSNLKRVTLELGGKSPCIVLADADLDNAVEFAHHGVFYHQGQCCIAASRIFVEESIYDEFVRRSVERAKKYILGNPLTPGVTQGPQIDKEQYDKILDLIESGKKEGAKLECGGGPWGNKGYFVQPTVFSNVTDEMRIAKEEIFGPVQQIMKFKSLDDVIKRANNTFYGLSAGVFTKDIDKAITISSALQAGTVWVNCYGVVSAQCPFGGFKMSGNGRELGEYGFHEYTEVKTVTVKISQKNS

SMILES: N#CN1CC[C@@H](NC(=O)c2cc(-c3ccccc3Oc3ccc(N=[N+]=[N-])cc3)n[nH]2)C1 [IMP-2586]
Difference (log2 fold change of enrichment) ([1]; IMP-2586 labelling vs DMSO, HEK293T (Table S4, Fig.5c)): 1.30
Difference (log2 fold change of enrichment) [2, 13]: 0.83
Difference (log2 fold change of enrichment) [3, 13]: 2.66
Difference (log2 fold change of enrichment) [4, 13]: 0.45

SMILES: C#Cc1cccc(-c2cc(NC(=O)CC3CCN(C#N)C3)on2)c1 (stereo not drawn) [IMP-2587]
Difference (log2 fold change of enrichment) ([1]; IMP-2587 labelling vs DMSO, HEK293T (Table S2, Fig.5a)): 1.32
Difference (log2 fold change of enrichment) [5, 14]: 2.95
Difference (log2 fold change of enrichment) [6, 14]: 2.01
Difference (log2 fold change of enrichment) [7, 14]: 2.58
Difference (log2 fold change of enrichment) [8, 14]: 4.10
Difference (log2 fold change of enrichment) [9, 14]: 1.70
Difference (log2 fold change of enrichment) [10, 14]: 2.06
Difference (log2 fold change of enrichment) [11, 14]: 2.95
Difference (log2 fold change of enrichment) [12, 14]: 3.97

Difference (log2 fold change of enrichment) [5, 15]: -1.88
Difference (log2 fold change of enrichment) [6, 15]: -1.86
Difference (log2 fold change of enrichment) [7, 15]: -2.58
Difference (log2 fold change of enrichment) [8, 15]: -3.82
Difference (log2 fold change of enrichment) [9, 15]: -1.60
Difference (log2 fold change of enrichment) [10, 15]: -1.95
Difference (log2 fold change of enrichment) [11, 15]: -2.59
Difference (log2 fold change of enrichment) [12, 15]: -3.46
SMILES: N#CN1CC[C@H](CC(=O)Nc2cc(-c3cccc(Cl)c3)no2)C1 [compound 1, reference compound]

Difference (log2 fold change of enrichment) [2, 16]: -0.44
Difference (log2 fold change of enrichment) [3, 16]: -2.38
Difference (log2 fold change of enrichment) [4, 16]: -0.40
SMILES: N#CN1CC[C@@H](NC(=O)c2cc(-c3ccccc3Oc3ccccc3)n[nH]2)C1 [compound 3, reference compound]
